Assay [1] addresses T1, glucagon receptor (GCGR) overexpressed CHO-K1 cells or human primary hepatocytes (Homo sapiens, UniProt P47871).
T1 construct: expressed in transfected cells; host or cells: GCGR overexpressed CHO-K1 cells or human primary hepatocytes (endogenous receptor)
The assay is described as follows: Glucagon cAMP inhibition assay (Cisbio cAMP Dynamic 2 HTRF). The format is cell-based. In a few lines: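 GCGR-overexpressing CHO-K1 cells or human primary hepatocytes in HBSS with 0.1% BSA and 800 nM IBMX, pre-incubated 30 min with serially diluted compounds (1% DMSO final), then stimulated 30 min at room temperature with glucagon at its EC50. cAMP measured by HTRF after 60 min lysis; IC50 by non-linear regression.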
(TR-FRET usually uses a lanthanide donor and a delayed reading to cut background.)

The target in a further assay is T2, glucagon receptor (GCGR) (Homo sapiens, UniProt P47871).
T2 construct: expressed in transfected cells; host or cells: CHO-K1 cells overexpressing GCGR (membrane fractions)
The assay is described as follows: I125-glucagon binding assay (competition, GCGR membrane fractions). In a few lines:
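Membranes from CHO-K1 cells overexpressing GCGR, 7.5 μg/well in 50 mM Tris pH 7.4 with 0.5% BSA, were preincubated 5 min with serially diluted compounds, then given 0.0625 nM final I^125-glucagon for 30 min at 25° C. Bound label was filtered on PEI-coated GF/B and counted; IC50 by non-linear regression.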

[2] abbreviates: inhibition of glucagon (EC50 concentration) induced cAMP production.
The mark [3] stands for this setting: competition with I125-glucagon 0.0625 nM, membrane fractions of GCGR overexpressed CHO-K1 cells.

Where two headings read alike, the source gives them in different places.

T2 sequence (P47871 26-477): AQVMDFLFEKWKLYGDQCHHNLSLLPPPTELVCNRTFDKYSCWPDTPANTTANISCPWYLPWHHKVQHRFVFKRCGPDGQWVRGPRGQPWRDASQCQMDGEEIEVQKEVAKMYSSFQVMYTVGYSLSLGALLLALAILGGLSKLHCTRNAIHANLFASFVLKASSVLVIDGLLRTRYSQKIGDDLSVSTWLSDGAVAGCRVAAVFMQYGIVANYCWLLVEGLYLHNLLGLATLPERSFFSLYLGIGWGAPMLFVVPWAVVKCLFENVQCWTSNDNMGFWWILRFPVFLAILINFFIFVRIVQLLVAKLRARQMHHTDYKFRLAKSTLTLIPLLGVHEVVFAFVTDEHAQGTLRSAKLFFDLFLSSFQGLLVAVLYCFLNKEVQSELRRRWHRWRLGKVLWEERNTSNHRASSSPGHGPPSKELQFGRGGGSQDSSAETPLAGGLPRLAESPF
T1 sequence (P47871 26-477): as above

Consider `CC(C)(C)[C@@H](COc1ccc(-c2cc3ccccc3o2)c(F)c1)Nc1ccc(C(=O)NCCC(=O)O)cc1` [Compound 8-21, (S)-3-(4-((1-(4-(benzofuran-2-yl)-3-fluorophenoxy)-3,3-dimethylbutan-2-yl)amino)benzamido)propanoic Acid], for which, in assay [1] (setting [2]), the “IC50 cAMP” value turned out to be 181 nM. Moreover, at glucagon receptor (GCGR) (setting [3]), the IC50 was found to be 0.111 µM.

Consider `CCCC[C@@H](COc1cnc(-c2ccc(Cl)cc2Cl)nc1)Nc1ccc(C(=O)NCCC(=O)O)cc1` [Compound 12-7, (S)-3-(4-((1-((2-(2,4-dichlorophenyl)pyrimidin-5-yl)oxy)hexan-2-yl)amino)benzamido)propanoic Acid], for which, in assay [1] (setting [2]), the “IC50 cAMP” value worked out at 3868 nM. At glucagon receptor (GCGR) (setting [3]), the IC50 stood at 0.888 µM.

As for `CC(C)[C@@H](COc1ccc(-c2ccc(C(F)(F)F)cc2Cl)c(Cl)c1)Nc1ccc(C(=O)NC[C@@H](O)C(=O)O)cc1` [Compound 3-2, (R)-3-(4-(((S)-1-((2,2′-dichloro-4′-(trifluoromethyl)-[1,1′-biphenyl]-4-yl)oxy)-3-methylbutan-2-yl)amino)benzamido)-2-hydroxypropanoic Acid], the “IC50 cAMP” value in assay [1] (setting [2]) is more than 10000 nM. The molecule also displayed an IC50 on glucagon receptor (GCGR) (setting [3]) of 0.135 µM.

For the molecule `CC[C@H](C)[C@@H](COc1cc(C)c(-c2ccc(C(C)(C)C)cc2)c(C)c1)Nc1ccc(C(=O)NCCC(=O)O)cc1` [Compound 2-6, 3-(4-(((2S,3S)-1-((4′-(tert-butyl)-2,6-dimethyl-[1,1′-biphenyl]-4-yl)oxy)-3-methylpentan-2-yl)amino)benzamido)propanoic Acid], the “IC50 cAMP” value in assay [1] (setting [2]) was determined as 448 nM. At glucagon receptor (GCGR) (setting [3]), the IC50 was found to be 0.067 µM.

As to `CC[C@H](C)[C@@H](COc1cc(Cl)c(-c2ccc(C(F)(F)F)cc2F)cc1Cl)Nc1ccc(C(=O)NCCC(=O)O)cc1` [Compound 3-21], the “IC50 cAMP” value in assay [1] (setting [2]) stood at 653 nM. Besides, on glucagon receptor (GCGR) (setting [3]), the 50% inhibitory concentration (IC50) was found to be 0.295 µM.

For the molecule `CCCC[C@@H](COc1ccc(-c2ccc(C(F)(F)F)cc2Cl)c(F)c1)Nc1ccc(C(=O)NCCC(=O)O)cc1` [Compound 8-15, (S)-3-(4-((1-((2′-chloro-2-fluor-4′-(trifluromethyl)-[1,1′-biphenyl]-4-yl)oxy)hexan-2-yl)amino)benzamido)propanoic Acid], the “IC50 cAMP” value in assay [1] (setting [2]) is reported as 129 nM. The molecule also registered an IC50 at glucagon receptor (GCGR) (setting [3]) of 0.059 µM.

For the molecule `CCOC(=O)CCNC(=O)c1ccc(N[C@H](CC(C)C)C(=O)Nc2ccc(-c3cc4ccccc4o3)cc2)cc1` [Compound 24-1], in assay [1], the “IC50 cAMP” value is reported as 1500 nM. Moreover, the half-maximal inhibitory concentration (IC50) at glucagon receptor (GCGR) (uM) is more than 10 µM.

`CC(C)COC[C@@H](Cc1ccc(-c2ccc(C(C)(C)C)cc2)cc1)Nc1ccc(C(=O)NCCC(=O)O)cc1` [Compound 19-17, (R)-3-(4-((1-(4′-(tert-butyl)-[1,1′-biphenyl]-4-yl)-3-isobutoxypropan-2-yl)amino)benzamido)propanoic Acid]: in assay [1], the “IC50 cAMP” value is given as 1225 nM. On glucagon receptor (GCGR), this molecule gave an IC50 of 1.04 µM.

As to `CCC(C)[C@H](Nc1ccc(C(=O)NCCC(=O)O)cc1)c1nnc(-c2oc3ccccc3c2C)o1` (stereo partly drawn) [Compound 20-2, 3-(4-(((1S)-2-methyl-1-(5-(3-methylbenzofuran-2-yl)-1,3,4-oxadiazol-2-yl)butyl)amino)benzamido)propanoic Acid], the “IC50 cAMP” value in assay [1] was found to be 22191 nM. This molecule also displayed an IC50 on glucagon receptor (GCGR) of 0.974 µM.

On to `CCCC[C@@H](COc1ccc(-c2ccc(C(F)(F)F)cc2F)c(OC)c1)Nc1ccc(C(=O)NCCC(=O)O)cn1` [Compound 14-2, (S)-3-(6-((1-((2′-fluoro-2-methoxy-4′-(trifluoromethyl)-[1,1′-biphenyl]-4-yl)oxy)hexan-2-yl)amino)nicotinamido)propanoic Acid], for which the “IC50 cAMP” value in assay [1] (setting [2]) is reported as 508 nM. The IC50 at glucagon receptor (GCGR) (setting [3]) amounted to 0.074 µM.

For `CC[C@H](C)[C@@H](COc1ccc(-c2ccc(F)cc2F)cn1)Nc1ccc(C(=O)NCCS(=O)(=O)O)cc1` [Compound 15-21, 2-(4-(((2S,3S)-1-((5-(2,4-difluorophenyl)pyridin-2-yl)oxy)-3-methylpentan-2-yl)amino)benzamido)ethane-1-sulfonic Acid], the “IC50 cAMP” value in assay [1] is more than 30000 nM. The IC50 at glucagon receptor (GCGR) was 5.28 µM.

For `CC(C)[C@@H](COc1cnc(-c2cc3ccccc3o2)nc1)Nc1ccc(C(=O)NCCC(=O)O)cc1` [Compound 12-2, (S)-3-(4-((1-((2-(benzofuran-2-yl)pyrimidin-5-yl)oxy)-3-methylbutan-2-yl)amino)benzamido)propanoic Acid], in assay [1] (setting [2]), the “IC50 cAMP” value is reported as 6849 nM. On glucagon receptor (GCGR) (setting [3]), the IC50 was 0.266 µM.

With `CC(C)(C)c1ccc(NC(=O)[C@H](Cc2cccc3ccccc23)Nc2ccc(C(=O)NCCC(=O)O)cc2)cc1` [Compound 23-18, (S)-3-(4-((1-((4-(tert-butyl)phenyl)amino)-3-(naphthalen-1-yl)-1-oxopropan-2-yl)amino)benzamido)propanoic Acid], the “IC50 cAMP” value in assay [1] was determined as 4700 nM. At glucagon receptor (GCGR), this molecule registered an IC50 of 1.87 µM.

As for `CCC(C)[C@H](Nc1ccc(C(=O)NCCC(=O)O)cc1)c1nnc(-c2ccc(C(C)(C)C)cc2)o1` (stereo partly drawn) [Compound 20-3, 3-(4-(((1S)-1-(5-(4-(tert-butyl)phenyl)-1,3,4-oxadiazol-2-yl)-2-methylbutyl)amino)benzamido)propanoic Acid], the “IC50 cAMP” value in assay [1] is reported as 9163 nM. This molecule also came in with an IC50 on glucagon receptor (GCGR) of 0.801 µM.

Regarding `CC(C)(C)c1ccc(-c2ccc(OC[C@@H](Nc3ccc(C(=O)NCCC(=O)O)cc3)c3ccccc3)nc2)cc1` [Compound 15-4], in assay [1], the “IC50 cAMP” value is 3241 nM. This molecule also yielded an IC50 at glucagon receptor (GCGR) of 0.626 µM.

Take `CCCC[C@H](Cc1ccc(-c2ccc(C(F)(F)F)cc2)cc1)Nc1ccc(C(=O)NCCC(=O)O)cc1` [Compound 19-1, (R)-3-(4-((1-(4′-(trifluoromethyl)-[1,1′-biphenyl]-4-yl)hexan-2-yl)amino)benzamido)propanoic Acid]: the “IC50 cAMP” value in assay [1] worked out at 393.8 nM. The same molecule displayed an IC50 at glucagon receptor (GCGR) of 0.109 µM.

As to `CC[C@H](C)[C@@H](CSc1ccc(-c2ccc(C(F)(F)F)cc2)cc1)Nc1ccc(C(=O)NCCC(=O)O)cc1` [Compound 5-2, 3-(4-(((2S,3S)-3-methyl-1-((4′-(trifluoromethyl)-[1,1′-biphenyl]-4-yl)thio)pentan-2-yl)amino)benzamido)propanoic Acid], the “IC50 cAMP” value in assay [1] (setting [2]) came out at 2465 nM. Moreover, the IC50 on glucagon receptor (GCGR) (setting [3]) amounted to 1.19 µM.

On to `CC(C)[C@@H](COc1ccc(-c2ccc(C(F)(F)F)cc2Cl)cc1)Nc1ccc(C(=O)NCCC(=O)O)cc1` [Compound 1-22, (S)-3-(4-((1-((2′-chloro-4′-(trifluoromethyl)-[1,1′-biphenyl]-4-yl)oxy)-3-methylbutan-2-yl)amino)benzamido)propanoic Acid], for which the “IC50 cAMP” value in assay [1] (setting [2]) was determined as 14.2 nM. The IC50 on glucagon receptor (GCGR) (setting [3]) amounted to 0.07 µM.

`CC(C)[C@@H](COc1ccc(-c2cc3ccccc3o2)c(Cl)c1)Nc1ccc(C(=O)NC[C@@H](O)C(=O)O)cc1` [Compound 3-6, (R)-3-(4-(((S)-1-(4-(benzofuran-2-yl)-3-chlorophenoxy)-3-methylbutan-2-yl)amino)benzamido)-2-hydroxypropanoic Acid]: the “IC50 cAMP” value in assay [1] (setting [2]) is 9291 nM. The same molecule displayed an IC50 at glucagon receptor (GCGR) (setting [3]) of 0.184 µM.

As for `CC[C@H](C)[C@@H](COc1ccc(-c2ccc(C(F)(F)F)cc2)nn1)Nc1ccc(C(=O)NCCC(=O)O)cc1` [Compound 17-3, 3-(4-(((2S,3S)-3-methyl-1-((6-(4-(trifluoromethyl)phenyl)pyridazin-3-yl)oxy)pentan-2-yl)amino)benzamido)propanoic Acid], in assay [1] (setting [2]), the “IC50 cAMP” value stood at 1307 nM. For the same molecule, the IC50 on glucagon receptor (GCGR) (setting [3]) amounted to 0.989 µM.

What is called IC50 is the concentration needed to halve the response being measured. A lower IC50 goes with greater potency in that assay.

(Values after patent publication US11384060B2, “Amide compounds and use thereof” (ALPHALA CO., LTD., priority 2017, dated 2022).)
